# Reference: patent US10017542B2, “Antimicrobial peptides and methods of use thereof” (priority 2015, dated 2018)
# pEC50, pIC50: −log10 of the molar value. Where a SMILES comes first, the peptide text is derived from it. Where no end group is shown, it is not given here. [ ]: non-standard residue; d: D form. Orn = NCCC[C@H](N)C(=O)O
# Experiments:
# E. coli = settings: 24 h
# Procedure: (§1) Measurement of antimicrobial and anti-fungal activity was determined by a standard micrometer dilution method. Briefly, cells were grown overnight in media specified for each strain, and were diluted in the same media. Serial dilutions of the peptides were added to microtiter plates in a volume of 50 ul, followed by the addition of 50 ul of bacteria or fungi, 5×10^5 CFU/ml. Plates were incubated at 37 degrees for 24 hours and the Minimum Inhibitory Concentrations (MICs) were determined as the lowest peptide concentration that inhibited 50% of bacterial growth.
# [1] = tested on: bacterial isolates of Table 7 (A. baumanii, E. coli, E. cloaca, Pseudomonas, Staphylococcus)
# Procedure: (§2) Briefly, cells were grown overnight in media specified for each strain, and were diluted in the same media. Serial dilutions of the peptides were added to microtiter plates in a volume of 50 ul, followed by the addition of 50 ul of bacteria or fungi, 5×10^5 CFU/ml. Plates were incubated at 37 degrees for 24 hours and the Minimum Inhibitory Concentrations (MICs) were determined as the lowest peptide concentration that inhibited 50% of bacterial growth.
# C. albicans = settings: 24 h
# Procedure: as §2
# C. krusei = settings: 24 h
# Procedure: as §1
# [2] = tested on: fungal isolates of Table 8 (C. albicans, C. krusei, C. tropicalis)
# Procedure: as §1
# C. tropicalis = settings: 24 h
# Procedure: as §1
# Clostridium difficile = assay: Killing of antibiotic resistant bacteria (FIG. 2); type: cell-based; settings: 1 hour time point after addition, single cell format
# [3] = tested on: S. aureus MRSA (G+) biofilm
# Procedure: (§3) The Minimum Biofilm Eradication Concentration (MBEC) Assay was used. MBEC values provide estimates on the concentration of an antimicrobial product required to kill biofilm bacteria. The Calgary Biofilm Device (CBD) plate was used to effect biofilm formation on a lid containing 96 pegs. Bacterial cultures were grown and diluted in Tryptic Soy Broth (TSB) to approximately 1×10^7 CFU/mL before inoculation of the CBD plate, which was then incubated for 24 hr at 35° C. on a shaker at 125 rpm.
# (§4) The peg lid containing biofilm was first rinsed in PBS to remove planktonic cells prior to treatment with 2-fold serial dilutions of test articles and control overnight at 35° C. The peg lid was rinsed in PBS twice before sonication in fresh media to disrupt biofilm adhered to the pegs. The plate was then incubated overnight to evaluate growth. Bacterial quantification was performed by measuring absorbance at 650 nm (A650). By definition, A650 reading of less than 0.1 indicates biofilm eradication.
# [4] = tested on: S. epidermis (G+) biofilm
# Procedure: as §3, §4
# [5] = tested on: P. aeruginosa (G−) biofilm
# Procedure: as §3, §4
# B. thailandensis = settings: concentration required to kill 50% of B. thailandensis; 10 mM phosphate buffer, 3 h, 37° C.
# Staphylococcus aureus = assay: Killing of antibiotic resistant bacteria (FIG. 2); settings: 1 hour time point after addition, single cell format
# Pseudomonas aeruginosa = assay: Killing of antibiotic resistant bacteria (FIG. 2); settings: 1 hour time point after addition, single cell format
# E. cloaca = settings: 24 h
# Procedure: as §1
# Procedure for A. baumanii (G−) biofilm: as §3, §4
Compound,pIC50 (C. krusei),pIC50 [2],Average MBEC [3] [µM],Average MBEC [4] [µM],Average MBEC (A. baumanii (G−) biofilm) [µM],Average MBEC [5] [µM],pEC50 (B. thailandensis),further results
"CC[C@H](C)[C@H](NC(=O)CNC(=O)CNC(=O)[C@H](CS)NC(=O)[C@H](Cc1ccccc1)NC(=O)[C@H](CCCN)NC(=O)CNC(=O)[C@H](CC(C)C)NC(=O)[C@H](CS)NC(=O)CNC(=O)CNC(=O)[C@H](CC(C)C)NC(=O)[C@H](CCCN)NC(=O)[C@H](C)NC(=O)[C@H](CCCN)NC(=O)[C@@H](NC(=O)[C@H](CCCN)NC(=O)[C@@H](N)Cc1ccccc1)[C@@H](C)CC)C(=O)N[C@@H](CCCN)C(=O)N[C@@H](C)C(=O)N[C@@H](CCCN)C(=O)N[C@@H](CC(C)C)C(=O)N[C@@H](CCCN)C(=O)N[C@@H](Cc1ccccc1)C(=O)O [RP504, FOIOAOLGGCLGOFCGGIOAOLOF] (H-F[Orn]I[Orn]A[Orn]LGGCLG[Orn]FCGGI[Orn]A[Orn]L[Orn]F-OH; N-terminus and C-terminus assumed)",5.57,4.64,,,,,,pIC50 (E. coli): 4.97; pIC50 [1]: 4.75; pIC50 (C. albicans): 4.36
"CC[C@H](C)[C@H](NC(=O)[C@H](C)NC(=O)[C@H](CCCN)NC(=O)[C@H](CCCN)NC(=O)[C@H](CCCN)NC(=O)[C@@H](NC(=O)[C@H](CCCN)NC(=O)[C@H](CC(C)C)NC(=O)[C@H](CCCN)NC(=O)[C@H](CCCN)NC(=O)[C@H](CCCN)NC(=O)[C@H](CCCN)NC(=O)[C@H](C)NC(=O)[C@H](CCCN)NC(=O)[C@H](CO)NC(=O)[C@H](CC(C)C)NC(=O)[C@@H](NC(=O)[C@H](CCCCN)NC(=O)[C@H](CC(C)C)NC(=O)[C@H](CC(C)C)NC(=O)[C@H](CO)NC(=O)[C@H](CCCN)NC(=O)[C@H](CC(C)C)NC(=O)[C@@H](N)CCCN)[C@@H](C)O)[C@@H](C)O)C(=O)N[C@@H](CO)C(=O)N[C@@H](CCCN)C(=O)O [RP505, OLOSLLKTLSOAOOOOLOTOOOAISO] (H-[Orn]L[Orn]SLLKTLS[Orn]A[Orn][Orn][Orn][Orn]L[Orn]T[Orn][Orn][Orn]AIS[Orn]-OH; N-terminus and C-terminus assumed)",4.76,4.88,,,,,,pIC50 (C. tropicalis): 5.06
FAFAFAFKKAFKKFKKAFKKAF [RP442],,,14.68,14.68,1.87,234.28,6.02,killing of C. difficile (Clostridium difficile): effective in killing; killing of S. aureus (Staphylococcus aureus): effectively killed; killing of P. aeruginosa (Pseudomonas aeruginosa): effective in killing
"C[C@H](NC(=O)[C@H](Cc1ccccc1)NC(=O)[C@H](C)NC(=O)[C@H](Cc1ccccc1)NC(=O)[C@H](CCCN)NC(=O)[C@H](C)NC(=O)[C@H](Cc1ccccc1)NC(=O)[C@H](CCCN)NC(=O)[C@H](CCCN)NC(=O)[C@H](C)NC(=O)[C@H](Cc1ccccc1)NC(=O)[C@H](CCCN)NC(=O)[C@H](CCCN)NC(=O)[C@H](Cc1ccccc1)NC(=O)[C@H](CCCN)NC(=O)[C@H](CCCN)NC(=O)[C@H](C)NC(=O)[C@H](Cc1ccccc1)NC(=O)[C@H](CCCN)NC(=O)[C@H](CCCN)NC(=O)[C@H](C)NC(=O)[C@@H](N)Cc1ccccc1)C(=O)N[C@@H](Cc1ccccc1)C(=O)O [RP444, FAOOFAOOFOOFAOOFAOFAFAF] (H-FA[Orn][Orn]FA[Orn][Orn]F[Orn][Orn]FA[Orn][Orn]FA[Orn]FAFAF-OH; N-terminus and C-terminus assumed)",,,14.41,14.41,3.68,57.62,4.83,
"CSCC[C@H](NC(=O)[C@H](Cc1c[nH]c2ccccc12)NC(=O)[C@H](CC(C)C)NC(=O)[C@H](C)N)C(=O)N[C@H](C(=O)N[C@@H](CC(C)C)C(=O)N[C@@H](CCCN)C(=O)N[C@@H](CCCN)C(=O)N[C@@H](CCCN)C(=O)N[C@H](C(=O)N[C@@H](CC(C)C)C(=O)N[C@@H](CCCN)C(=O)N[C@@H](C)C(=O)N[C@@H](CCCN)C(=O)N[C@@H](C)C(=O)N[C@@H](CCCN)C(=O)N[C@@H](C)C(=O)N[C@@H](CC(C)C)C(=O)N[C@@H](CC(N)=O)C(=O)N[C@@H](C)C(=O)N[C@H](C(=O)N[C@@H](CC(C)C)C(=O)N[C@H](C(=O)NCC(=O)N[C@@H](C)C(=O)N[C@@H](CC(N)=O)C(=O)N[C@@H](C)C(=O)O)C(C)C)C(C)C)C(C)C)[C@@H](C)O [RP507, ALWMTLOOOVLOAOAOALNAVLVGANA] (H-ALWMTL[Orn][Orn][Orn]VL[Orn]A[Orn]A[Orn]ALNAVLVGANA-OH; N-terminus and C-terminus assumed)",4.70,4.36,,,,,,pIC50 (C. tropicalis): 4.40
"CC[C@H](C)[C@H](NC(=O)[C@H](CS)NC(=O)[C@H](Cc1ccccc1)NC(=O)[C@H](CCCNC(=N)N)NC(=O)CNC(=O)[C@H](CC(C)C)NC(=O)[C@H](CS)NC(=O)[C@H](CC(C)C)NC(=O)[C@H](CCCCN)NC(=O)[C@H](C)NC(=O)[C@H](CCCNC(=N)N)NC(=O)[C@@H](NC(=O)[C@@H](N)CCCCN)[C@@H](C)CC)C(=O)N[C@@H](CCCNC(=N)N)C(=O)N[C@@H](C)C(=O)N[C@@H](CCCCN)C(=O)N[C@@H](CC(C)C)C(=O)N[C@@H](CCCNC(=N)N)C(=O)O [RP439, KIRAKLCLGRFCIRAKLR] (H-KIRAKLCLGRFCIRAKLR-OH)",,,,,,,,killing of C. difficile (Clostridium difficile): effective in killing; killing of S. aureus (Staphylococcus aureus): effectively killed; killing of P. aeruginosa (Pseudomonas aeruginosa): effective in killing
"CC[C@H](C)[C@H](NC(=O)[C@H](CCCNC(=N)N)NC(=O)[C@H](C)NC(=O)[C@H](CC(C)C)NC(=O)[C@H](CCCNC(=N)N)NC(=O)[C@@H](N)CS)C(=O)N[C@H](C(=O)N[C@@H](CS)C(=O)NCC(=O)NCC(=O)N[C@@H](Cc1ccccc1)C(=O)N[C@@H](C)C(=O)N[C@@H](CCCN)C(=O)N[C@@H](CCCN)C(=O)N[C@@H](Cc1ccccc1)C(=O)N[C@@H](C)C(=O)N[C@@H](CCCN)C(=O)N[C@@H](CCCN)C(=O)N[C@@H](Cc1ccccc1)C(=O)N[C@@H](CCCN)C(=O)N[C@@H](CCCN)C(=O)N[C@@H](Cc1ccccc1)C(=O)N[C@@H](C)C(=O)N[C@@H](CCCN)C(=O)N[C@@H](CCCN)C(=O)N[C@@H](Cc1ccccc1)C(=O)N[C@@H](C)C(=O)N[C@@H](CCCN)C(=O)N[C@@H](Cc1ccccc1)C(=O)N[C@@H](C)C(=O)N[C@@H](Cc1ccccc1)C(=O)N[C@@H](C)C(=O)N[C@@H](Cc1ccccc1)C(=O)O)C(C)C [RP501, CRLARIVCGGFAOOFAOOFOOFAOOFAOFAFAF] (H-CRLARIVCGGFA[Orn][Orn]FA[Orn][Orn]F[Orn][Orn]FA[Orn][Orn]FA[Orn]FAFAF-OH; N-terminus and C-terminus assumed)",,,,,,,,pIC50 (E. coli): 5.14; pIC50 (E. cloaca): 4.84; pIC50 [1]: 4.87
"CN[C@H](CC(C)C)C(=O)N[C@H]1C(=O)N[C@@H](CC(N)=O)C(=O)N[C@H]2C(=O)N[C@H]3C(=O)N[C@H](C(=O)N[C@H](C(=O)O)c4cc(O)cc(O)c4-c4cc3ccc4O)[C@H](O)c3ccc(c(Cl)c3)Oc3cc2cc(c3O[C@@H]2O[C@H](CO)[C@@H](O)[C@H](O)[C@H]2O[C@H]2C[C@](C)(N)[C@H](O)[C@H](C)O2)Oc2ccc(cc2Cl)[C@H]1O [vancomycin, reference compound]",,,,,,,,killing of C. difficile (Clostridium difficile): not effective; killing of P. aeruginosa (Pseudomonas aeruginosa): not effective
"C[C@H](NC(=O)[C@H](Cc1ccccc1)NC(=O)[C@H](C)NC(=O)[C@@H](N)Cc1ccccc1)C(=O)N[C@@H](Cc1ccccc1)C(=O)N[C@@H](CCCN)C(=O)N[C@@H](C)C(=O)N[C@@H](Cc1ccccc1)C(=O)N[C@@H](CCCN)C(=O)N[C@@H](CCCN)C(=O)N[C@@H](C)C(=O)N[C@@H](Cc1ccccc1)C(=O)N[C@@H](CCCN)C(=O)N[C@@H](CCCN)C(=O)N[C@@H](Cc1ccccc1)C(=O)N[C@@H](CCCN)C(=O)N[C@@H](CCCN)C(=O)N[C@@H](C)C(=O)N[C@@H](Cc1ccccc1)C(=O)N[C@@H](CCCN)C(=O)N[C@@H](CCCN)C(=O)N[C@@H](C)C(=O)N[C@@H](Cc1ccccc1)C(=O)O [RP443, FAFAFOAFOOAFOOFOOAFOOAF] (H-FAFAF[Orn]AF[Orn][Orn]AF[Orn][Orn]F[Orn][Orn]AF[Orn][Orn]AF-OH; N-terminus and C-terminus assumed)",,,7.36,3.68,3.68,57.62,4.25,
"C[C@H](N)C(=O)N[C@@H](Cc1ccccc1)C(=O)N[C@@H](C)C(=O)N[C@@H](Cc1ccccc1)C(=O)N[C@H](C(=O)N[C@@H](C)C(=O)N[C@@H](CCCN)C(=O)N[C@@H](CCCN)C(=O)N[C@@H](CCCN)C(=O)N[C@@H](Cc1ccccc1)C(=O)N[C@@H](C)C(=O)N[C@@H](CCCN)C(=O)N[C@@H](Cc1ccccc1)C(=O)N[C@@H](CCCN)C(=O)N[C@@H](C)C(=O)N[C@@H](CCCN)C(=O)N[C@@H](Cc1ccccc1)C(=O)N[C@@H](C)C(=O)N[C@@H](CC(N)=O)C(=O)N[C@@H](Cc1ccccc1)C(=O)N[C@@H](C)C(=O)N[C@@H](Cc1ccccc1)C(=O)N[C@@H](C)C(=O)NCC(=O)N[C@@H](Cc1ccccc1)C(=O)N[C@@H](CC(N)=O)C(=O)N[C@@H](C)C(=O)O)[C@@H](C)O [RP508, AFAFTAOOOFAOFOAOFANFAFAGFNA] (H-AFAFTA[Orn][Orn][Orn]FA[Orn]F[Orn]A[Orn]FANFAFAGFNA-OH; N-terminus and C-terminus assumed)",4.42,4.34,,,,,,pIC50 (C. albicans): 4.42
CPGFAKKFAKKFKKFAKKFAKFAFAF [RP438],,,12.89,12.89,6.45,51.43,4.95,
